Data published in patent publication US11040954B1, “CXCR3 receptor agonists” (RECEPTOS LLC, priority 2016, dated 2021).
Read-outs that look alike come from different tables or passages of the source.

Biological target: T1, CXCR3 (Homo sapiens, UniProt P49682)
T1 construct: host or cells: CHO-K1 (cAMP Hunter CHOK1 CXCR3 Gi cell line)
T1 sequence (P49682 1-368): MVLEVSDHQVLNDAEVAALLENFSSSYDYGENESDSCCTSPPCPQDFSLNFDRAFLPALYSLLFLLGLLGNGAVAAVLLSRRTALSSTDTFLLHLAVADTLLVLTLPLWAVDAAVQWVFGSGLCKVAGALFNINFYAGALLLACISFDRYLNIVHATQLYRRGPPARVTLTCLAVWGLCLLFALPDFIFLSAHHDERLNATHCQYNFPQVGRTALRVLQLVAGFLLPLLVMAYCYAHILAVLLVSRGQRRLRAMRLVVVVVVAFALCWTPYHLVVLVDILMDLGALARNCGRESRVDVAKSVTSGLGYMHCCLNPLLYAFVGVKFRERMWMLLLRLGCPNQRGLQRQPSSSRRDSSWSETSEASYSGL
Experiment: CXCR3 cAMP agonist assay (cAMP Hunter CHOK1 CXCR3 Gi cell line, forskolin-stimulated, HitHunter cAMP detection)
Type: cell-based
Summary of the method: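 CHOK1 cells expressing human CXCR3 with Gi coupling, 50,000/well in suspension in HBSS/10 mM HEPES/0.1% BSA pH 7.4, were co-treated with 20 μM forskolin and compound (12-point, 0-10 μM, 1% DMSO) for 30 min. cAMP was read by enzyme-complementation luminescence; CXCL11 dose response set maximum efficacy.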

[1] = cAMP Hunter CHOK1 CXCR3 Gi cells, 20 μM forskolin, 30 minutes, read-out: Activity (CXCR3 cAMP agonist assay compound EC50)

| Compound | EC50 [1] [nM] | EC50 [nM] |
| --- | --- | --- |
| Cc1cc(NC(=O)[C@H](CCN)NC(=O)[C@@H]2Cc3ccccc3CN2C(=O)CCC(=O)N2CCCC3(CCC3)C2)cc(C)c1Cl [Compound 10-11] | < 50 | – |
| O=C(NC1(C(=O)Nc2ccc(Cl)c(Cl)c2F)CCNCC1)[C@@H]1Cc2ccccc2CN1C(=O)CCC(=O)N1CCCC2(CCC2)C1 [Compound 12-128] | < 50 | – |
| Cc1cc(NC(=O)[C@H](CCN)NC(=O)[C@@H]2Cc3ccccc3CN2C(=O)CCC(=O)N2CCCC2(C)C)ccc1Cl [Compound 12-31] | < 50 | – |
| Cc1cc(NC(=O)[C@H](CCN)NC(=O)[C@@H]2Cc3ccccc3CN2C(=O)CCC(=O)N2CCCC23CCC3)ccc1Cl [Compound 12-73] | < 50 | – |
| NCC[C@H](NC(=O)[C@@H]1Cc2ccccc2CN1C(=O)CCC(=O)c1ccccc1)C(=O)Nc1cc2c(cc1Cl)CCC2 [Compound 2-73] | < 50 | – |
| Cc1cc(NC(=O)[C@H](CCNS(C)(=O)=O)NC(=O)[C@@H]2Cc3ccccc3CN2C(=O)CCC(=O)N2CCCCC2)ccc1Cl [Compound 32-2] | < 50 | – |
| Cc1c(NC(=O)C2(NC(=O)[C@@H]3Cc4ccccc4CN3C(=O)CCC(=O)c3ccccc3)CCNCC2)ccc(Cl)c1Cl [Compound 11-2] | 250 to 500 | – |
| Cc1cc(NC(=O)[C@H](CCN)NC(=O)[C@@H]2Cc3ccccc3CN2C(=O)CCC(=O)N2CCN(C)C[C@@H]2C)ccc1Cl [Compound 12-116] | 50 to 250 | – |
| Cc1cc(NC(=O)[C@H](CCN)NC(=O)[C@@H]2Cc3ccccc3CN2C(=O)CCC(=O)NC2CC2(F)F)ccc1Cl (stereo partly shown) [Compound 12-82] | 250 to 500 | – |
| Cc1c(F)cc(NC(=O)[C@H](CCN)NC(=O)[C@@H]2Cc3ccccc3CN2C(=O)CCC(=O)c2ccccc2)cc1F [Compound 27-5] | < 50 | – |
| Cc1ccc(C#N)cc1NC(=O)[C@H](CCN)NC(=O)[C@@H]1Cc2ccccc2CN1C(=O)CCC(=O)c1ccccc1 [Compound 14-20] | 250 to 500 | – |
| NCC[C@H](NC(=O)[C@@H]1Cc2ccccc2CN1C(=O)CCC(=O)c1ccccc1)C(=O)Nc1ccccc1C(F)(F)F [Compound 14-15] | 250 to 500 | – |
| NCC[C@H](NC(=O)[C@@H]1Cc2ccccc2CN1C(=O)CCC(=O)c1ccccc1)C(=O)Nc1cc(Cl)c(Cl)cn1 [Compound 4-15] | 250 to 500 | – |
| NCC[C@H](NC(=O)[C@@H]1Cc2ccc(F)cc2CN1C(=O)CCC(=O)N1CCCC2(CCC2)C1)C(=O)Nc1ccc(Cl)c(Cl)c1F [Compound 15-58] | < 50 | – |
| NC(=O)NCCC[C@H](NC(=O)[C@@H]1Cc2ccccc2CN1C(=O)CCC(=O)c1ccccc1)C(=O)Nc1ccc(Cl)c(Cl)c1 [Compound 3-1, (S)—N—((S)-1-((3,4-dichlorophenyl)amino)-1-oxo-5-ureidopentan-2-yl)-2-(4-oxo-4-phenylbutanoyl)-1,2,3,4-tetrahydroisoquinoline-3-carboxamide] | 50 to 250 | – |
| Cc1cc(NC(=O)[C@H](CCN2CCC(F)(F)CC2)NC(=O)[C@@H]2Cc3ccccc3CN2C(=O)CCC(=O)c2ccccc2)ccc1Cl [Compound 17-4] | 50 to 250 | – |
| COc1cc(F)ccc1NC(=O)[C@H](CCN)NC(=O)[C@@H]1Cc2ccccc2CN1C(=O)CCC(=O)c1ccccc1 [Compound 13-6] | > 500 | – |
| N#Cc1c(NC(=O)[C@H](CCN)NC(=O)[C@@H]2Cc3ccccc3CN2C(=O)CCC(=O)c2ccccc2)ccc(Cl)c1Cl [Compound 14-26] | 50 to 250 | – |
| NCC[C@H](NC(=O)[C@@H]1Cc2ccccc2CN1C(=O)CCC(=O)c1ccccc1)C(=O)Nc1cc(Cl)c(Cl)cc1O (racemic) [Compound 4-13] | 50 to 250 | – |
| O=C(CCC(=O)N1Cc2ccccc2C[C@H]1C(=O)N[C@@H](CCN1CCC(F)(F)CC1)C(=O)Nc1ccc(Cl)c(Cl)c1F)c1ccccc1 [Compound 23-2] | 50 to 250 | – |
| Cc1cc(NC(=O)[C@H](CCN)NC(=O)[C@@H]2Cc3ccccc3CN2C(=O)CCC(=O)N2CCN3CCC[C@@H]3C2)ccc1Cl [Compound 12-110] | < 50 | – |
| Cc1cc(C(=O)CCC(=O)N2Cc3ccccc3C[C@H]2C(=O)N[C@@H](CCCCN)C(=O)Nc2ccc(Cl)c(C)c2)ccc1F [Compound 7-3] | 50 to 250 | – |
| Cc1cc(NC(=O)[C@H](CCN)NC(=O)[C@@H]2Cc3ccccc3CN2C(=O)CCC(=O)N(C)Cc2ccccc2)ccc1Cl [Compound 12-16] | > 500 | – |

| Compound | EC50 [1] [nM] | EC50 [nM] |
| --- | --- | --- |
| Cc1cc(NC(=O)[C@H](CCN)NC(=O)[C@@H]2Cc3ccccc3CN2C(=O)CCC(=O)N2CCC(C#N)CC2)ccc1Cl [Compound 12-44] | < 50 | – |
| [2H]C([2H])([2H])N1CCN(C(=O)CCC(=O)N2Cc3ccccc3C[C@H]2C(=O)N[C@@H](CCN)C(=O)Nc2ccc(Cl)c(C)c2)CC1 [Compound 12-118] | < 50 | – |
| Cc1cc(NC(=O)[C@@](C)(CCCCN)NC(=O)[C@@H]2Cc3ccccc3CN2C(=O)CCC(=O)c2ccccc2)ccc1Cl [Compound 4-9] | 50 to 250 | – |
| COc1cc(C)c(C)cc1NC(=O)[C@H](CCN)NC(=O)[C@@H]1Cc2ccccc2CN1C(=O)CCC(=O)c1ccccc1 [Compound 2-79] | < 50 | – |
| NCC[C@H](NC(=O)[C@@H]1Cc2ccccc2CN1C(=O)CCC(=O)N1CCC2CCCCC21)C(=O)Nc1ccc(Cl)c(Cl)c1F (stereo partly shown) [Compound 15-38] | < 50 | – |
| Cc1cc(NC(=O)[C@H](CCN)NC(=O)[C@@H]2Cc3ccccc3CN2C(=O)CCC(=O)N2CCCC(C(C)C)C2)ccc1Cl (stereo partly shown) [Compound 12-96] | < 50 | – |
| Cc1cc(NC(=O)[C@H](CCN)NC(=O)[C@@H]2Cc3ccccc3CN2C(=O)CCC(=O)N2CCN(C)[C@@H](C)C2)ccc1Cl [Compound 12-36] | < 50 | – |
| Cc1cc(NC(=O)[C@H](CCN)NC(=O)[C@@H]2Cc3ccccc3CN2C(=O)CCC(=O)N2CCC2)ccc1Cl [Compound 12-30] | 50 to 250 | – |
| Cc1cc(NC(=O)[C@H](CCN)NC(=O)[C@@H]2Cc3ccccc3CN2C(=O)CCC(=O)N2CCC(=O)CC2)ccc1Cl [Compound 12-86] | – | 250 to 500 |
| Cc1cc(NC(=O)[C@H](CCN2CCCC2)NC(=O)[C@@H]2Cc3ccccc3CN2C(=O)CCC(=O)c2ccccc2)ccc1Cl [Compound 3-8] | < 50 | – |
| NC12CC(CC(NC(=O)[C@@H]3Cc4ccccc4CN3C(=O)CCC(=O)c3ccccc3)C(=O)Nc3ccc(Cl)c(Cl)c3F)(C1)C2 (mixture of isomers) [Compound 22-3] | < 50 | – |
| Cc1ccc(NC(=O)[C@H](CCN2CCC(O)CC2)NC(=O)[C@@H]2Cc3ccccc3CN2C(=O)CCC(=O)c2ccccc2)c(F)c1 [Compound 28-3] | 250 to 500 | – |
| N#Cc1ccc2c(c1)CN(C(=O)CCC(=O)c1ccccc1)[C@H](C(=O)N[C@@H](CCN)C(=O)Nc1ccc(Cl)c(Cl)c1F)C2 [Compound 30-1, (S)—N—((S)-4-amino-1-((3,4-dichloro-2-fluorophenyl)amino)-1-oxobutan-2-yl)-7-cyano-2-(4-oxo-4-phenylbutanoyl)-1,2,3,4-tetrahydroisoquinoline-3-carboxamide] | 50 to 250 | – |
| O=C(CCC(=O)N1Cc2ccccc2C[C@H]1C(=O)NC1(C(=O)Nc2ccc3c(c2)CCC3)CCNCC1)c1ccccc1 [Compound 13-1] | < 50 | – |
| CN(C(=O)CCC(=O)N1Cc2ccccc2C[C@H]1C(=O)N[C@@H](CCN)C(=O)Nc1ccc(Cl)c(Cl)c1F)C(C)(C)C [Compound 15-53] | 50 to 250 | – |
| O=C(CCC(=O)N1Cc2ccccc2C[C@H]1C(=O)NC1(C(=O)Nc2cccc(Cl)c2Cl)CCNCC1)c1ccccc1 [Compound 11-5] | > 500 | – |
| Cc1c(Cl)ccc(NC(=O)C(CCN2CCC(O)CC2)NC(=O)[C@@H]2Cc3ccccc3CN2C(=O)CCC(=O)c2ccccc2)c1Cl (mixture of isomers) [Compound 25-1, (3S)—N-(1-((2,4-dichloro-3-methylphenyl)amino)-4-(4-hydroxypiperidin-1-yl)-1-oxobutan-2-yl)-2-(4-oxo-4-phenylbutanoyl)-1,2,3,4-tetrahydroisoquinoline-3-carboxamide] | 50 to 250 | – |
| CC(C)NCC[C@H](NC(=O)[C@@H]1Cc2ccccc2CN1C(=O)CCC(=O)c1ccccc1)C(=O)Nc1ccc(Cl)c(Cl)c1F [Compound 8-7] | < 50 | – |
| Cc1cc(NC(=O)[C@H](CCN)NC(=O)[C@@H]2Cc3ccccc3CN2C(=O)CCC(=O)N2CCC[C@@H]2c2ccccc2)ccc1Cl [Compound 12-132] | 50 to 250 | – |
| Cc1cc(NC(=O)[C@](C)(CCCCN)NC(=O)[C@@H]2Cc3ccccc3CN2C(=O)CCC(=O)c2ccccc2)ccc1Cl [Compound 4-10] | 50 to 250 | – |
| NC(=O)NCCCC[C@H](NC(=O)[C@@H]1Cc2ccccc2CN1C(=O)CCC(=O)c1ccccc1)C(=O)Nc1ccc(Cl)c(Cl)c1 [Compound 3-6] | 250 to 500 | – |
| Cc1cc(NC(=O)[C@H](CCN)NC(=O)[C@@H]2Cc3ccccc3CN2C(=O)CCC(=O)N2[C@H](C)CCC[C@@H]2C)ccc1Cl [Compound 12-43] | < 50 | – |
| CCN(CC)C(=O)CCC(=O)N1Cc2ccccc2C[C@H]1C(=O)N[C@@H](CCN)C(=O)Nc1ccc(Cl)c(Cl)c1F [Compound 15-42] | 250 to 500 | – |
